Laboratory results reported in the supplement of paper PMC10307832.

Experiments:
Assay in all cases: relative viability (nuclei count vs DMSO), 5 days (fraction); higher = more cells survive
A-427 = tested on: A-427
Procedure, shortened: (§1)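 For relative viability, nuclei counts in treated wells were divided by those in vehicle wells. Lung cancer cell lines had been pin-tool dosed in 1536-well plates the day after seeding and cultured for 5 days, then fixed and stained in one step (final 0.05% Triton X-100, 1% formaldehyde, 1 ug/ml Hoechst) and imaged at 4×. Doses were one drug alone or a fixed anchor-drug dose plus five library-drug doses (not always all listed) in √10 steps, and values are duplicate-plate medians.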

COR-L 105 = tested on: COR-L 105
Procedure, shortened: as §1

EKVX = tested on: EKVX
Procedure, shortened: as §1

EMC-BAC-2 = tested on: EMC-BAC-2
Procedure, shortened: as §1

H3255 = tested on: H3255
Procedure, shortened: as §1

HCC-366 = tested on: HCC-366
Procedure, shortened: as §1

LK-2 = tested on: LK-2
Procedure, shortened: as §1

LOU-NH91 = tested on: LOU-NH91
Procedure, shortened: as §1

NCI-H1563 = tested on: NCI-H1563
Procedure, shortened: as §1

NCI-H1666 = tested on: NCI-H1666
Procedure, shortened: as §1

NCI-H1734 = tested on: NCI-H1734
Procedure, shortened: as §1

NCI-H1755 = tested on: NCI-H1755
Procedure, shortened: as §1

NCI-H1792 = tested on: NCI-H1792
Procedure, shortened: as §1

NCI-H1975 = tested on: NCI-H1975
Procedure, shortened: as §1

NCI-H23 = tested on: NCI-H23
Procedure, shortened: as §1

NCI-H441 = tested on: NCI-H441
Procedure, shortened: as §1

NCI-H520 = tested on: NCI-H520
Procedure, shortened: as §1

NCI-H596 = tested on: NCI-H596
Procedure, shortened: as §1

PC-3 [JPC-3] = tested on: PC-3 [JPC-3]
Procedure, shortened: as §1

SK-MES-1 = tested on: SK-MES-1
Procedure, shortened: as §1

With C=C1C(=O)O[C@@H](CCCCCCCC)[C@@H]1C(=O)O [C-75] + C[C@]1(O)C[C@@H](c2nc(-c3ccc4ccc(-c5ccccc5)nc4c3)c3c(N)nccn32)C1 [Linsitinib] (partner 1 µM) the relative viability (A-427; first compound 0.08 µM) was 1.16, the relative viability (A-427; first compound 0.253 µM) was 1 and the relative viability (A-427; first compound 0.8 µM) was 1.06. The relative viability (A-427; first compound 2.53 µM) was 1.07, the relative viability (A-427; first compound 8 µM) was 1.09 and the relative viability (COR-L 105; first compound 0.08 µM) was 0.993. For the same compound, the relative viability (COR-L 105; first compound 0.253 µM) was 0.928, the relative viability (COR-L 105; first compound 0.8 µM) was 0.89 and the relative viability (COR-L 105; first compound 2.53 µM) was 0.946. For the same compound, the relative viability (COR-L 105; first compound 8 µM) was 0.886, the relative viability (EKVX; first compound 0.08 µM) was 1.01 and the relative viability (EKVX; first compound 0.253 µM) was 1.05. It also gave a relative viability (EKVX; first compound 0.8 µM) of 0.906, a relative viability (EKVX; first compound 2.53 µM) of 0.96 and a relative viability (EKVX; first compound 8 µM) of 0.908. The relative viability (EMC-BAC-2; first compound 0.08 µM) was 0.791, the relative viability (EMC-BAC-2; first compound 0.253 µM) was 0.754 and the relative viability (EMC-BAC-2; first compound 0.8 µM) was 0.831. For the same compound, the relative viability (EMC-BAC-2; first compound 2.53 µM) was 0.761, the relative viability (EMC-BAC-2; first compound 8 µM) was 0.831 and the relative viability (H3255; first compound 0.08 µM) was 0.868. For the same compound, the relative viability (H3255; first compound 0.253 µM) was 1.13, the relative viability (H3255; first compound 0.8 µM) was 1.01 and the relative viability (H3255; first compound 2.53 µM) was 0.895. For the same compound, the relative viability (H3255; first compound 8 µM) was 1.16, the relative viability (HCC-366; first compound 0.08 µM) was 0.629 and the relative viability (HCC-366; first compound 0.253 µM) was 0.645. For the same compound, the relative viability (HCC-366; first compound 0.8 µM) was 0.558, the relative viability (HCC-366; first compound 8 µM) was 0.258 and the relative viability (LK-2; first compound 0.08 µM) was 0.416. For the same compound, the relative viability (LK-2; first compound 0.253 µM) was 0.785, the relative viability (LK-2; first compound 0.8 µM) was 0.607 and the relative viability (LK-2; first compound 2.53 µM) was 0.514. The relative viability (LK-2; first compound 8 µM) was 0.369, the relative viability (LOU-NH91; first compound 0.08 µM) was 1 and the relative viability (LOU-NH91; first compound 0.253 µM) was 0.82. It also gave a relative viability (LOU-NH91; first compound 0.8 µM) of 0.875, a relative viability (LOU-NH91; first compound 2.53 µM) of 0.859 and a relative viability (LOU-NH91; first compound 8 µM) of 1.02. It also gave a relative viability (NCI-H1563; first compound 0.08 µM) of 1.24, a relative viability (NCI-H1563; first compound 0.253 µM) of 1.23 and a relative viability (NCI-H1563; first compound 0.8 µM) of 1.14. The relative viability (NCI-H1563; first compound 2.53 µM) was 1.28, the relative viability (NCI-H1563; first compound 8 µM) was 1.18 and the relative viability (NCI-H1666; first compound 0.08 µM) was 0.79. It also gave a relative viability (NCI-H1666; first compound 0.253 µM) of 1.01, a relative viability (NCI-H1666; first compound 0.8 µM) of 0.816 and a relative viability (NCI-H1666; first compound 2.53 µM) of 0.858. For the same compound, the relative viability (NCI-H1666; first compound 8 µM) was 0.644, the relative viability (NCI-H1734; first compound 0.08 µM) was 0.876 and the relative viability (NCI-H1734; first compound 0.253 µM) was 0.813. The relative viability (NCI-H1734; first compound 0.8 µM) was 0.804, the relative viability (NCI-H1734; first compound 2.53 µM) was 0.622 and the relative viability (NCI-H1734; first compound 8 µM) was 0.732. For the same compound, the relative viability (NCI-H1755; first compound 0.08 µM) was 0.946, the relative viability (NCI-H1755; first compound 0.253 µM) was 0.887 and the relative viability (NCI-H1755; first compound 0.8 µM) was 0.98. The relative viability (NCI-H1755; first compound 2.53 µM) was 0.775, the relative viability (NCI-H1755; first compound 8 µM) was 1.01 and the relative viability (NCI-H1792; first compound 0.08 µM) was 0.527. It also gave a relative viability (NCI-H1792; first compound 0.253 µM) of 0.486, a relative viability (NCI-H1792; first compound 0.8 µM) of 0.471 and a relative viability (NCI-H1792; first compound 2.53 µM) of 0.377. For the same compound, the relative viability (NCI-H1792; first compound 8 µM) was 0.544, the relative viability (NCI-H1975; first compound 0.08 µM) was 0.958 and the relative viability (NCI-H1975; first compound 0.253 µM) was 1.02. It also gave a relative viability (NCI-H1975; first compound 0.8 µM) of 0.945, a relative viability (NCI-H1975; first compound 2.53 µM) of 0.897 and a relative viability (NCI-H1975; first compound 8 µM) of 0.898. For the same compound, the relative viability (NCI-H23; first compound 0.08 µM) was 0.541, the relative viability (NCI-H23; first compound 0.253 µM) was 0.784 and the relative viability (NCI-H23; first compound 0.8 µM) was 0.506. The relative viability (NCI-H23; first compound 2.53 µM) was 0.557, the relative viability (NCI-H23; first compound 8 µM) was 0.561 and the relative viability (NCI-H441; first compound 0.08 µM) was 0.476. It also gave a relative viability (NCI-H441; first compound 0.253 µM) of 0.592, a relative viability (NCI-H441; first compound 0.8 µM) of 0.373 and a relative viability (NCI-H441; first compound 2.53 µM) of 0.48. For the same compound, the relative viability (NCI-H441; first compound 8 µM) was 0.442, the relative viability (NCI-H520; first compound 0.08 µM) was 1.1 and the relative viability (NCI-H520; first compound 0.253 µM) was 1.28. It also gave a relative viability (NCI-H520; first compound 0.8 µM) of 0.904, a relative viability (NCI-H520; first compound 2.53 µM) of 0.906 and a relative viability (NCI-H520; first compound 8 µM) of 0.825. It also gave a relative viability (NCI-H596; first compound 0.08 µM) of 1.01, a relative viability (NCI-H596; first compound 0.253 µM) of 1.09 and a relative viability (NCI-H596; first compound 0.8 µM) of 1.01. The relative viability (NCI-H596; first compound 2.53 µM) was 0.911, the relative viability (NCI-H596; first compound 8 µM) was 1.03 and the relative viability (PC-3 [JPC-3]; first compound 0.08 µM) was 0.939. For the same compound, the relative viability (PC-3 [JPC-3]; first compound 0.253 µM) was 0.933, the relative viability (PC-3 [JPC-3]; first compound 0.8 µM) was 0.951 and the relative viability (PC-3 [JPC-3]; first compound 2.53 µM) was 1.02. The relative viability (PC-3 [JPC-3]; first compound 8 µM) was 1.09, the relative viability (SK-MES-1; first compound 0.08 µM) was 1.1 and the relative viability (SK-MES-1; first compound 0.253 µM) was 0.935. For the same compound, the relative viability (SK-MES-1; first compound 0.8 µM) was 1.02 and the relative viability (SK-MES-1; first compound 8 µM) was 1.05.
